Key:
EcDsbA [1] = target: T1, EcDsbA (Escherichia coli, UniProt P0AEG4); assay: waterLOGSY ligand-detected NMR binding; conditions: compound 500 µM, unlabelled EcDsbA 10 µM, 298 K
T1 construct: made in house; protein recovered from the periplasm of the expressing cells
Source text: (§1) To validate the binding of benzofuran analogues, three ligand-detected NMR methods, saturation-transfer difference (STD), Carr–Purcell–Meiboom–Gill (CPMG), and water–ligand observed via gradient spectroscopy (waterLOGSY), were employed to detect protein-ligand binding between the benzofurans and EcDsbA (Figure 2C). These experiments were designed as a primary screening tool to select analogues to undergo further affinity evaluation and prioritise compounds for crystal soaking. […] In a good agreement with this finding, eight out of nine benzofurans that passed all three ligand-detected experiments have their co-crystal structures successfully solved; in contrast, five compounds that failed two ligand-detected experiments only have one co-structure solved (Table 2).
(§2) For ligand-detected NMR spectroscopy, two samples (compound alone and compound + protein) were prepared for each compound. Unlabelled EcDsbA was prepared at 10 µM in a buffer of 50 mM sodium phosphate, pH 6.8, 25 mM NaCl, 100 µM 4,4-dimethyl 4-silapentane-1-sulfonic acid (DSS), and 10% ^2H2O. Compound was added to the protein sample to achieve final concentration of 500 µM (2% ^2H6-DMSO). ^1H 1D spectrum was acquired for each compound at 500 µM as a reference spectrum. All ligand-detected NMR experiments (STD, CPMG, and waterLOGSY) were acquired at 298 K on a Bruker Avance III 600 MHz NMR spectrometer equipped with a 5 mm TXI CryoProbe (Bruker, Billerica, MA, USA). STD spectra were acquired with 3 s of saturation at 1 ppm (on-resonance) and 33.3 ppm (off-resonance). WaterLOGSY spectra were acquired for compound alone and compound + protein with a 0.52 s acquisition time, 3 s relaxation delay, and 3 s Nuclear Overhauser effect (NOE) mixing time. CPMG spectra for compound alone and compound + protein were acquired with a constant spin echo delay of 1 ms and spin-lock period of 350 ms. The data was analysed using Topspin3.5 (Bruker) and DSS was used to reference the spectra.

EcDsbA [2] = target: T1, EcDsbA; assay: CPMG ligand-detected NMR binding; conditions: compound 500 µM, unlabelled EcDsbA 10 µM, 298 K, spin-lock 350 ms
Source text: as §1, §2

EcDsbA [3] = target: T1, EcDsbA; assay: STD ligand-detected NMR binding; conditions: compound 500 µM, unlabelled EcDsbA 10 µM, 298 K
Source text: as §1, §2

15N-labelled EcDsbA = target: T2, 15N-labelled EcDsbA (Escherichia coli, UniProt P0AEG4); assay: 2D 1H-15N HSQC chemical shift perturbation / titration; type: binding; conditions: for Ligand Efficiency: LE = −RTln(KD)/HAC, 298 K; for fold decrease in binding affinity: relative to 25
T2 construct: made in house; protein recovered from the periplasm of the expressing cells
T2 sequence (P0AEG4 20-208): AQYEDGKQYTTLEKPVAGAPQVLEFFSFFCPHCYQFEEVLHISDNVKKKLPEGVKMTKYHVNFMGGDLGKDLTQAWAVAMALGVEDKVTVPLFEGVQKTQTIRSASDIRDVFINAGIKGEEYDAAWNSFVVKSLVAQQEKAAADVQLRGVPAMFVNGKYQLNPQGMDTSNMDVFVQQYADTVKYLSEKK
Experimental: Compounds that passed at least one ligand-detected NMR experiment were further validated by 2D ^1H-^15N heteronuclear single quantum coherence (HSQC) spectroscopy. In HSQC experiments, chemical shift perturbations (CSP) of backbone amide resonances of ^15N-labelled EcDsbA were measured upon addition of compound at 1 mM. […] In accordance with the crystal structure, the majority of the residues perturbed by 1 mM of benzofuran analogues in single-point HSQCs are located around the hydrophobic groove which is an important binding site for DsbA substrates (Figure 2A). […] Eight compounds produced large enough CSP (>0.04 ppm) to enable HSQC titration and KD determination.
For the 2D ^1H-^15N-HSQC titration experiment, 100 µM of ^15N-labelled EcDsbA in a buffer of 50 mM HEPES, pH 6.8, 50 mM NaCl, 2% ^2H6-DMSO, and 10% ^2H2O, was titrated with increasing concentrations of compounds ([…], 0.125, 0.25, 0.5, and 1 mM). Data were acquired on a Bruker 600 MHz spectrometer equipped with a 5 mm TXI CryoProbe and a Bruker 700 MHz spectrometer equipped with a 5 mm TXI CryoProbe. Data was processed by Topspin3.5 (Bruker) and analysed by Sparky (T. D. Goddard and D. G. Kneller, SPARKY 3, University of California, San Francisco (UCSF)). Weighted chemical shift perturbations (CSP) that were observed upon addition of compounds to EcDsbA were calculated using an Equation (1) in [41]: (1) CSP=ΔδH^2+(0.2×ΔδN)^2 where ΔδH and ΔδN denote the change in chemical shift of amide proton and nitrogen resonances upon addition of the compound. Equilibrium dissociation constants (KD) were determined by fitting the plot of CSP against compound concentrations using one site with ligand depletion model (Equation (2)): (2) CSP=CSPmax×[(KD+Pt+Lt)−((KD+Pt+Lt)^2−4×Pt×Lt)]/2×Pt where CSP is the measured CSP at a given concentration, CSPmax is the CSP observed at the saturating concentration of compound, and Pt and Lt are the total protein and compound concentrations. The ligand efficiency (LE) is calculated using the Equation (3) in [42]: (3) LE=−ΔG/HAC=−RTln(KD)/HAC where R is gas constant (1.9858775 cal K^−1 mol^−1), T is temperature (298 K), KD is equilibrium dissociation constant, and HAC is the number of heavy (non-hydrogen) atoms.

EcDsbA [4] = target: T1, EcDsbA; assay: Compound soaking into EcDsbA crystals and X-ray diffraction; type: binding; conditions: crystals soaked with compound at 10 mM (5% DMSO) for 3–6 h
Source text: The synthesised analogues were soaked into crystals of EcDsbA and X-ray diffraction data was collected for each analogue in order to determine their site of binding. […] The carboxy moiety of 15 was oriented towards the left-hand side of the binding groove, where more polar residues are located. The phenyl ring of the aniline moiety occupied the hydrophobic end of the binding pocket with the nitrogen atom of the amine linker positioned in close proximity to Gln35. […] Although anisidine 16 was occupying a larger region of the EcDsbA binding groove, the shift appeared to have interrupted the π-stacking interactions the benzofuran was making with the His32 side chain previously (Figure 1B and Figure S1).
EcDsbA was crystallised as previously described. Briefly, 1 µL of 30 mg/mL EcDsbA was mixed with an equal volume of crystallisation buffer (11–13% PEG8000, 5–7.5% glycerol, 1 mM CuCl2, 100 mM, sodium cacodylate pH 6.1) and equilibrated against 500 µL of reservoir buffer at 20 °C using hanging drop vapour diffusion. For compound soaking, crystals were transferred into 2 µL drops of 24% PEG8000, 22% glycerol, and 100 mM sodium cacodylate (pH 6.1) containing a compound of interest at the final concentration of 10 mM (5% DMSO) and were incubated for 3–6 h. Crystals were mounted on loops and flash-cooled in liquid nitrogen.
Datasets were collected at the Australian synchrotron on MX1 and MX2 beamlines using the Blue-Ice software (Irvine, CA, USA). MX1 beamline was equipped with an ADSC Quantum 210r detector and MX2 with an ADSC Quantum 315r detector. All datasets were indexed and integrated with iMOSFLM [32] or XDS [33]—and scaled using AIMLESS [34, 35] or SCALA [36]. Phasing was performed by molecular replacement with Phaser using the previously solved structure of EcDsbA as a search model (PDB code 1FVK). The final structure was obtained after several rounds of manual model building using Coot and refinement in phenix.refine. Structures, factors and coordinates have been deposited in the Protein Data Bank (PDB; http://www.pdb.org) under the accession codes of 6PMF, 6POQ, 6POH, 6PML, 6PVY, 6POI, and 6PVZ.

T1 sequence (P0AEG4 20-208): as above

SMILES | wLOGSY (EcDsbA [1]) | CPMG (EcDsbA [2]) | STD (EcDsbA [3]) | chemical shift perturbations (CSP) of hydrophobic groove residues (15N-labelled EcDsbA; single-point HSQC, compound at 1 mM) | Crystal Structure in EcDsbA (EcDsbA [4]) | affinity to EcDsbA (15N-labelled EcDsbA; fragment hit from biophysical screening) | melting point | Kd (15N-labelled EcDsbA) | Ligand Efficiency (15N-labelled EcDsbA) | fold decrease in binding affinity (15N-labelled EcDsbA)
CC(C)COc1ccc2c(CC(=O)O)coc2c1 [compound 22, 2-(6-Isobutoxybenzofuran-3-yl)acetic acid] | Fail | Pass | Fail | too small to determine KD | Yes |  |  |  |  | 
O=C(O)Cc1coc2cc(Br)ccc12 [compound 6, 2-(6-Bromobenzofufran-3-yl)acetic acid] |  |  |  |  |  | high mM affinity |  |  |  | 
CC(=O)NC(C(=O)O)c1coc2cc(Br)ccc12 (centres unmarked) [compound 46, 2-Acetamido-2-(6-bromobenzofuran-3-yl)acetic acid] | Pass | Fail | Fail |  | No |  | 194 to 196 °C |  |  | 
O=C(O)Cc1coc2cc(OCc3ccccc3)ccc12 [compound 23] | Pass | Pass | Pass |  | Yes |  | 153 to 155 °C | 820 ± 140 µM | 0.20 kcal mol^−1 HAC^−1 | 
O=C(O)Cc1coc2cc(Cc3ccccc3)ccc12 [compound 28, 2-(6-Benzylbenzofuran-3-yl)acetic acid] | Pass | Pass | Pass |  | Yes |  | 124 to 127 °C | 341 ± 47 µM | 0.24 kcal mol^−1 HAC^−1 | 
COc1cccc(Oc2ccc3c(CC(=O)O)coc3c2)c1 [compound 26, 2-(6-(3-Methoxyphenoxy)benzofuran-3-yl)acetic acid] | Pass | Pass | Pass |  |  |  |  | 639 ± 87 µM | 0.20 kcal mol^−1 HAC^−1 | 2 fold
CS(=O)(=O)NC(C(=O)O)c1coc2cc(Br)ccc12 (centres unmarked) [compound 50, 2-(6-Bromobenzofuran-3-yl)-2-(methylsulfonamido)acetic acid] | Pass | Pass | Pass |  | Yes |  | 140 to 142 °C |  |  | 
O=C(O)Cc1coc2cc(Oc3ccccc3)ccc12 [compound 25, 2-(6-Phenoxybenzofuran-3-yl)acetic acid] | Pass | Pass | Pass |  | Yes |  |  | 326 ± 25 µM | 0.24 kcal mol^−1 HAC^−1 | 
O=C(NC(C(=O)O)c1coc2cc(Br)ccc12)c1ccccc1 (centres unmarked) [compound 47, 2-Benzamido-2-(6-bromobenzofuran-3-yl)-2-acetic acid] | Pass | Fail | Fail |  | No |  | 209 to 212 °C |  |  | 
COc1ccc(Nc2ccc3c(CC(=O)O)coc3c2)cc1 [compound 16, 2-(6-((4-Methoxyphenyl)amino)benzofuran-3-yl)acetic acid] | Pass | Pass | Fail |  | Yes |  | 120 to 122 °C | 2700 ± 920 µM | 0.16 kcal mol^−1 HAC^−1 | 
CCCCOc1ccc2c(CC(=O)O)coc2c1 [compound 21, 2-(6-Butoxybenzofuran-3-yl)acetic acid] | Pass | Pass | Pass |  | Yes |  | 108 to 109 °C | 1970 ± 640 µM | 0.20 kcal mol^−1 HAC^−1 | six-fold decrease
O=C(O)Cc1coc2ccc(OCc3ccccc3)cc12 [compound 24, 2-(5-(Benzyloxy)benzofuran-3-yl)acetic acid] |  |  |  |  | did not show clear enough electron density |  | 147 to 149 °C |  |  | 
O=C(O)Cc1c[nH]c2cc(Br)ccc12 [compound 34, 2-(6-Bromo-1H-indol-3-yl)acetic acid] |  |  |  |  | lack of electron density |  |  |  |  | 
O=C(Cc1ccccc1F)NC(C(=O)O)c1coc2cc(Br)ccc12 (centres unmarked) [compound 49, 2-(6-Bromobenzofuran-3-yl)-2-(2-(2-fluorophenyl)acetamido)acetic acid] | Pass | Fail | Fail |  | No |  | 209 to 211 °C | > 1000 µM |  | 
O=C(O)Cc1c[nH]c2cc(-c3ccccc3)ccc12 [compound 36, 2-(6-Phenyl-1H-indol-3-yl)acetic acid] | Pass | Pass | Pass |  | lack of electron density and No |  |  |  |  | 
Brc1ccc2c(Cc3nnn[nH]3)coc2c1 [compound 31, 5-((6-Bromobenzofuran-3-yl)methyl)-1H-tetrazole] | Pass | Pass | Pass |  | did not produce electron density and No |  |  |  |  | 
O=C(O)C(NS(=O)(=O)c1ccccc1)c1coc2cc(Br)ccc12 (centres unmarked) |  |  |  |  |  |  | 179 to 182 °C |  |  | 
